Assay results reported in the supplement of paper PMC11451515.

How the values were obtained:
Conditions in all cases: 48 h
SEM cells [1] = experiment: cell viability relative to DMSO control; higher = less cytotoxic
How it was run: (§1)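 Viability is expressed as a percentage of DMSO wells within each plate, and cell-free wells serve as background. Seeding densities in the 1536-well plates (5 μl) were 500 cells/well for NOMO1 or SEM leukemia cells and 1000 cells/well for P12-Ichikawa. Each line was adapted for at least four passages in each medium. Library compounds in DMSO were pin-dosed at 47 μM to 0.79 nM (11 points, threefold), and CellTiter-Glo One luminescence was read after 48 h at 37°C.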

P12-Ichikawa [2] = experiment: as above
How it was run: as §1

NOMO1 [3] = experiment: as above
How it was run: as §1

SEM cells [4] = experiment: AUC of viability dose-response curve (% viability x log10 dose units); higher = less sensitive
How it was run: (§2)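 In 1536-well plates, leukemia cells adapted to each medium (500 or 1000 cells/well) were exposed for 48 h at 37°C to library compounds in DMSO across 11 threefold doses, 47 μM down to 0.79 nM. Viability was read by CellTiter-Glo One luminescence and normalised per plate to DMSO and cell-free wells. A four-parameter log-logistic fit over log10 doses was integrated by trapezoidal rule. This yielded the area under the curve, with over-full-viability curves scaled and quality-control failures dropped.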

P12-Ichikawa [5] = experiment: as above
How it was run: as §2

NOMO1 [6] = experiment: as above
How it was run: as §2

CC(C)C[C@@H](C(=O)N[C@H](C(=O)OC1CCCC1)c1ccccc1)[C@H](O)C(=O)NO
cell viability [%]
Conditions | NOMO1 [3] | P12-Ichikawa [2] | SEM cells [1]
HPLM + 10% dialyzed FBS, 0.000781 µM | 107 | 109 | 125
HPLM + 10% dialyzed FBS, 0.00234 µM | 114 | 111 | 119
HPLM + 10% dialyzed FBS, 0.00702 µM | 112 | 112 | 123
HPLM + 10% dialyzed FBS, 0.0211 µM | 119 | 114 | 136
HPLM + 10% dialyzed FBS, 0.0632 µM | 126 | 108 | 120
HPLM + 10% dialyzed FBS, 0.19 µM | 107 | 108 | 122
HPLM + 10% dialyzed FBS, 0.569 µM | 104 | 104 | 117
HPLM + 10% dialyzed FBS, 1.71 µM | 122 | 105 | 89.2
HPLM + 10% dialyzed FBS, 5.12 µM | 103 | 95.5 | 105
HPLM + 10% dialyzed FBS, 15.4 µM | 96.2 | 86.8 | 104
HPLM + 10% dialyzed FBS, 46.1 µM | 33.6 | 59.7 | 38
RPMI 5 mM glucose + 10% FBS, 0.000781 µM | 111 | 103 | –
RPMI 5 mM glucose + 10% FBS, 0.00234 µM | 102 | 119 | –
RPMI 5 mM glucose + 10% FBS, 0.00702 µM | 117 | 114 | –
RPMI 5 mM glucose + 10% FBS, 0.0211 µM | 117 | 113 | –
RPMI 5 mM glucose + 10% FBS, 0.0632 µM | 103 | 107 | –
RPMI 5 mM glucose + 10% FBS, 0.19 µM | 107 | 116 | –
RPMI 5 mM glucose + 10% FBS, 0.569 µM | 103 | 110 | –
RPMI 5 mM glucose + 10% FBS, 1.71 µM | 99.3 | 93.8 | –
RPMI 5 mM glucose + 10% FBS, 5.12 µM | 99 | 89.6 | –
RPMI 5 mM glucose + 10% FBS, 15.4 µM | 92.6 | 69.8 | –
RPMI 5 mM glucose + 10% FBS, 46.1 µM | 13 | 37.1 | –
RPMI 5 mM glucose + 10% dialyzed FBS, 0.000781 µM | 114 | 112 | 113
RPMI 5 mM glucose + 10% dialyzed FBS, 0.00234 µM | 114 | 113 | 113
RPMI 5 mM glucose + 10% dialyzed FBS, 0.00702 µM | 122 | 115 | 111
RPMI 5 mM glucose + 10% dialyzed FBS, 0.0211 µM | 122 | 116 | 114
RPMI 5 mM glucose + 10% dialyzed FBS, 0.0632 µM | 100 | 111 | 102
RPMI 5 mM glucose + 10% dialyzed FBS, 0.19 µM | 119 | 103 | 106
RPMI 5 mM glucose + 10% dialyzed FBS, 0.569 µM | 102 | 110 | 101
RPMI 5 mM glucose + 10% dialyzed FBS, 1.71 µM | 118 | 102 | 72.8
RPMI 5 mM glucose + 10% dialyzed FBS, 5.12 µM | 106 | 89 | 83.4
RPMI 5 mM glucose + 10% dialyzed FBS, 15.4 µM | 91.2 | 89.6 | 65.9
RPMI 5 mM glucose + 10% dialyzed FBS, 46.1 µM | 16 | 35.9 | 23.2

AUC of viability dose-response curve
Conditions | NOMO1 [6] | P12-Ichikawa [5] | SEM cells [4]
HPLM + 10% dialyzed FBS | 451 | 446 | 454
RPMI 5 mM glucose + 10% FBS | 449 | 424 | 423
RPMI 5 mM glucose + 10% dialyzed FBS | 446 | 441 | 399

CC(C)(OCc1nn(Cc2ccccc2)c2ccccc12)C(=O)O
cell viability [%]
Conditions | NOMO1 [3] | P12-Ichikawa [2] | SEM cells [1]
HPLM + 10% dialyzed FBS, 0.000781 µM | 101 | 104 | 100
HPLM + 10% dialyzed FBS, 0.00234 µM | 99.8 | 101 | 101
HPLM + 10% dialyzed FBS, 0.00702 µM | 108 | 101 | 95.4
HPLM + 10% dialyzed FBS, 0.0211 µM | 116 | 104 | 103
HPLM + 10% dialyzed FBS, 0.0632 µM | 120 | 102 | 116
HPLM + 10% dialyzed FBS, 0.19 µM | 84.4 | 96 | 97.4
HPLM + 10% dialyzed FBS, 0.569 µM | 108 | 103 | 108
HPLM + 10% dialyzed FBS, 1.71 µM | 114 | 101 | 100
HPLM + 10% dialyzed FBS, 5.12 µM | 88.8 | 101 | 97.5
HPLM + 10% dialyzed FBS, 15.4 µM | 85.2 | 96.3 | 109
HPLM + 10% dialyzed FBS, 46.1 µM | 99.1 | 105 | 92.6
RPMI 5 mM glucose + 10% FBS, 0.000781 µM | 84.4 | 99.3 | 99.4
RPMI 5 mM glucose + 10% FBS, 0.00234 µM | 89.3 | 92.4 | 95.2
RPMI 5 mM glucose + 10% FBS, 0.00702 µM | 98.8 | 104 | 116
RPMI 5 mM glucose + 10% FBS, 0.0211 µM | 96 | 95.9 | 101
RPMI 5 mM glucose + 10% FBS, 0.0632 µM | 93 | 101 | 109
RPMI 5 mM glucose + 10% FBS, 0.19 µM | 92.2 | 88.6 | 93.9
RPMI 5 mM glucose + 10% FBS, 0.569 µM | 99.9 | 98.6 | 94
RPMI 5 mM glucose + 10% FBS, 1.71 µM | 94.2 | 94.9 | 112
RPMI 5 mM glucose + 10% FBS, 5.12 µM | 89.8 | 96.2 | 109
RPMI 5 mM glucose + 10% FBS, 15.4 µM | 96.8 | 92.8 | 96
RPMI 5 mM glucose + 10% FBS, 46.1 µM | 83.4 | 94.5 | 96.5
RPMI 5 mM glucose + 10% dialyzed FBS, 0.000781 µM | 96.2 | 97.1 | 94.7
RPMI 5 mM glucose + 10% dialyzed FBS, 0.00234 µM | 91.5 | 89.1 | 103
RPMI 5 mM glucose + 10% dialyzed FBS, 0.00702 µM | 93.3 | 95.8 | 107
RPMI 5 mM glucose + 10% dialyzed FBS, 0.0211 µM | 108 | 90.1 | 104
RPMI 5 mM glucose + 10% dialyzed FBS, 0.0632 µM | 91.6 | 92.6 | 97.1
RPMI 5 mM glucose + 10% dialyzed FBS, 0.19 µM | 106 | 84.6 | 102
RPMI 5 mM glucose + 10% dialyzed FBS, 0.569 µM | 102 | 87.9 | 115
RPMI 5 mM glucose + 10% dialyzed FBS, 1.71 µM | 83.6 | 89.3 | 100
RPMI 5 mM glucose + 10% dialyzed FBS, 5.12 µM | 111 | 88.8 | 104
RPMI 5 mM glucose + 10% dialyzed FBS, 15.4 µM | 95.4 | 85.8 | 103
RPMI 5 mM glucose + 10% dialyzed FBS, 46.1 µM | 97.4 | 85 | 96.4

AUC of viability dose-response curve
Conditions | NOMO1 [6] | P12-Ichikawa [5] | SEM cells [4]
HPLM + 10% dialyzed FBS | 460 | 473 | 475
RPMI 5 mM glucose + 10% FBS | 442 | 459 | 471
RPMI 5 mM glucose + 10% dialyzed FBS | 467 | 427 | 477
